The source of these data is ChEMBL document CHEMBL1649204, “Evaluation of analogs of reutericyclin as prospective candidates for treatment of staphylococcal skin infections” (Antimicrob Agents Chemother, 2009).

Structures are written as SMILES. Values after ≈ are worked out from the molar mass of the structure shown. Active and inactive are the calls of the source. The calls are words filed in the database; no cut-off is given here. Some results are limits rather than exact numbers.

For data set [1], the system named is Staphylococcus aureus. The data set is described as follows: Antimicrobial activity against methicillin-resistant Staphylococcus aureus ATCC 33591 by microdilution method. Type of data set: functional.
For data set [2], the system named is Staphylococcus aureus. The data set is described as follows: Antimicrobial activity against methicillin-susceptible Staphylococcus aureus ATCC 29213 grown as biofilms by microdilution method. Type of data set: functional.
Data set [3] concerns Staphylococcus aureus. The data set is described as follows: Antimicrobial activity against methicillin-resistant Staphylococcus aureus by microdilution method. It is filed as functional.
Data set [4] in a line: Cytotoxicity against human CCD-32Sk cells after 48 hrs by MTT assay. Type of data set: cell-based. As to conditions: Homo sapiens, CCD-32Sk, 48 h; read-out: IC50. In general terms: Tetrazolium assays rely on reduction of a dye to a coloured formazan, in cell work by metabolically active cells.
For data set [5], the system named is Staphylococcus aureus. The data set is described as follows: Antimicrobial activity against methicillin-susceptible Staphylococcus aureus by microdilution method. Type of data set: functional. A general note: In broth dilution the organism is exposed to a series of concentrations in liquid medium.
For data set [6], the system named is Staphylococcus aureus. The data set is described as follows: Antimicrobial activity against Staphylococcus aureus isolate 8235 at >200 ug/ml by microdilution method in presence of 50 % human serum. It is filed as functional, organism-based.
In data set [7] the test system is Staphylococcus aureus. Description: Antimicrobial activity against Staphylococcus aureus ATCC 29213 infected BALB/c mouse at 2 % administered topically 4 hrs post infection twice a day for 5 days. It is filed as functional, organism-based.
The subject of data set [8] is Staphylococcus epidermidis. The data set is described as follows: Antimicrobial activity against Staphylococcus epidermidis RP62A grown as biofilms by microdilution method. Type of data set: functional.
In data set [9] the test system is Staphylococcus aureus. Description: Antimicrobial activity against methicillin-susceptible Staphylococcus aureus ATCC 29213 by microdilution method. It is filed as functional.
Data set [10] is described as follows: Therapeutic index, ratio of IC50 for human CCD-32Sk cells to MIC for Staphylococcus aureus 8235. Type of data set: cell-based. The settings on record: read-out: TI.
In data set [11] the test system is Staphylococcus aureus. Description: Antimicrobial activity against mupirocin- and methicillin-resistant Staphylococcus aureus by microdilution method. It is filed as functional.
Data set [12] deals with Staphylococcus aureus. The data set is described as follows: Antimicrobial activity against Staphylococcus aureus 8235 by microdilution method. Type of data set: functional.
Data set [13] relates to Staphylococcus epidermidis. Description: Antimicrobial activity against Staphylococcus epidermidis RP62A by microdilution method. Type of data set: functional.
For the next data set, the system named is Streptococcus pyogenes. The data set is described as follows: Antimicrobial activity against Streptococcus pyogenes by microdilution method. Type of data set: functional.

For orientation: MIC means the lowest concentration that inhibits growth of the organism. A higher MIC goes with weaker potency. As usually defined, the MIC50 is an inhibitory concentration at the 50% level, which refers to growth in some studies and to a panel of isolates in others. Usually MIC90 stands for the lowest concentration that inhibits either 90% of growth or 90% of the strains tested, depending on the study. Lower therefore signals greater potency. A word on the IC50: it is the concentration needed to halve the response being measured. In the case of `C/C(=C\C(=O)OCCCCCCCCC(=O)O)C[C@@H]1OC[C@H](C[C@@H]2O[C@H]2[C@@H](C)[C@H](C)O)[C@@H](O)[C@H]1O` [MUPIROCIN], the MIC in the data set on Staphylococcus aureus [1] turned out to be 0.06 µg/mL (≈ 0.12 µM); in the data set with Staphylococcus aureus [9], 0.1 µg/mL (≈ 0.2 µM); with Staphylococcus aureus [12], 12.5 µg/mL (≈ 25 µM); in data set [13] it was 0.12 µg/mL (≈ 0.24 µM). For the same molecule, the MBEC (in the data set on Staphylococcus aureus [2]; in data set [8]) was above 400 µg/mL in each case. Also, the MBIC (in the data set on Staphylococcus aureus [2]; in data set [8]) was below 0.2 µg/mL throughout. For the same molecule, the MIC50 is 0.8 µg/mL (≈ 1.6 µM) against Staphylococcus aureus [3], 0.8 µg/mL (≈ 1.6 µM) in the data set on Staphylococcus aureus [5], 0.8 µg/mL (≈ 1.6 µM) against Staphylococcus aureus [11] and 0.4 µg/mL (≈ 0.799 µM) against Streptococcus pyogenes. Further, the MIC90 with Staphylococcus aureus [3] is 3.12 µg/mL (≈ 6.23 µM); in the data set with Staphylococcus aureus [5], 0.8 µg/mL (≈ 1.6 µM); in the data set on Staphylococcus aureus [11], 0.8 µg/mL (≈ 1.6 µM); in the data set with Streptococcus pyogenes, 0.4 µg/mL (≈ 0.799 µM). Moreover, in [4], the IC50 was above 20 mg/mL. Further, the outcome in the data set with Staphylococcus aureus [6] was inactive. For the same molecule, the result with Staphylococcus aureus [7] was Active. Further, the selectivity ratio in [10] is above 1600.
